In patent publication US20230015823A1, “METHODS OF ADMINISTERING VOXELOTOR” (Global Blood Therapeutics, Inc., priority 2019, published 2023):
Like-named read-outs stand apart in the source and are kept apart here.

How the values were obtained:
[1] = PK in patients with HbSC genotype vs HbSS genotype; details: human, in vivo
OCT2 = OCT2 (Homo sapiens, UniProt O15244); assay: In vitro transporter studies: OCT2; assay type: in vitro ADME
CYP2D6 = CYP2D6 (Homo sapiens, UniProt P10635)
[2] = Phase 1 study of a single oral dose of voxelotor in subjects with hepatic impairment: whole blood and plasma PK; assay type: in vivo, human; details: human; for half-life: read-out: t1/2, mean (converted); for Vd/F: read-out: Vz/F, GM (converted); for Tmax: read-out: tmax, median (converted)
Description: A Phase 1, open-label study was performed to characterize pharmacokinetics (PK) and safety of a single oral dose of voxelotor in subjects with hepatic impairment. The study was to assess the effects of mild, moderate, or severe hepatic impairment on the PK of a single oral dose of voxelotor, to evaluate the safety and tolerability of a single oral dose of voxelotor in subjects with mild, moderate, or severe hepatic impairment, as well as to establish potential dose adjustment guidance based upon the degree of hepatic insufficiency. […] This study was designed to assess the effects of mild, moderate, or severe hepatic impairment on the PK of a single oral dose of voxelotor. Routine safety assessments (AE monitoring, vital signs, physical examinations, clinical laboratory tests, and ECGs) were performed. Eligible subjects received a single oral dose of voxelotor 1500 mg (5×300-mg capsules) on Day 1 (for normal hepatic function, mild and moderate hepatic impairment). […] No food was allowed for at least 4 hours postdose. No water or any type of liquid was allowed for 1 hour before dosing through 1-hour postdose with the exception of water consumed for dosing. Adverse events and concomitant medication use were monitored throughout the study. Safety assessments, including physical examinations, vital signs assessments, 12-lead ECGs, and clinical laboratory tests, were performed. Whole blood and plasma concentrations of voxelotor were determined using validated assays. […] Louis, Mo.) and actual sampling times. The following PK parameters were determined. To assess the effect of hepatic impairment on the PK of voxelotor, a linear mixed-effect model was fitted to the log-transformed values of whole blood and plasma Cmax, AUCt, and AUCinf. The model included hepatic impairment group as a fixed effect and age and weight as covariates. Point estimates and 90% CIs for hepatic function group differences (mild, moderate, and severe hepatically-impaired subjects [test] versus the normal hepatic function subjects [control]) on the log scale were exponentiated to obtain estimates for GM ratios on the original scale. Voxelotor whole blood and plasma concentrations were measured using a validated liquid chromatography-mass spectrometry method. The lower limit of assay quantitation for voxelotor was 10.0 ng/mL for whole blood and 5.00 ng/mL in plasma.

[3] = plasma, po, 600 mg, plasma, severe hepatic impairment, 600 mg single oral dose
[4] = plasma, po, 1500 mg, plasma, mild hepatic impairment, 1500 mg single oral dose
[5] = plasma, po, 1500 mg, plasma, moderate hepatic impairment, 1500 mg single oral dose
[6] = plasma, po, 1500 mg, plasma, normal hepatic function, 1500 mg single oral dose

OCT2, sequence (O15244 whole entry): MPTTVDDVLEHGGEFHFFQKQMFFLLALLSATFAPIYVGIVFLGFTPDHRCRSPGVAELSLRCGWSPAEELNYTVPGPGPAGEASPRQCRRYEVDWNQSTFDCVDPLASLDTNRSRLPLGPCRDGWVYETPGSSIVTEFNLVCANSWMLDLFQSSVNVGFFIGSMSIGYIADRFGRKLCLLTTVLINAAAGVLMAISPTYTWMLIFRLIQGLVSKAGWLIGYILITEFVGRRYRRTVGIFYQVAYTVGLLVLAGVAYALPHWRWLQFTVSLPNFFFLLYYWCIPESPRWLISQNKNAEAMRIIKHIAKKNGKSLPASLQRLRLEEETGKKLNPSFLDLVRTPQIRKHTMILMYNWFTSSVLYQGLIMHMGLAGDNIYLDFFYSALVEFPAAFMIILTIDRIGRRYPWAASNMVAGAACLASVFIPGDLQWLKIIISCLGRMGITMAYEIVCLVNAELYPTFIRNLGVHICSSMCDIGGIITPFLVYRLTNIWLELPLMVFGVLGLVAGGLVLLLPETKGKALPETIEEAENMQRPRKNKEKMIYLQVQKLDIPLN
CYP2D6, sequence (P10635 whole entry): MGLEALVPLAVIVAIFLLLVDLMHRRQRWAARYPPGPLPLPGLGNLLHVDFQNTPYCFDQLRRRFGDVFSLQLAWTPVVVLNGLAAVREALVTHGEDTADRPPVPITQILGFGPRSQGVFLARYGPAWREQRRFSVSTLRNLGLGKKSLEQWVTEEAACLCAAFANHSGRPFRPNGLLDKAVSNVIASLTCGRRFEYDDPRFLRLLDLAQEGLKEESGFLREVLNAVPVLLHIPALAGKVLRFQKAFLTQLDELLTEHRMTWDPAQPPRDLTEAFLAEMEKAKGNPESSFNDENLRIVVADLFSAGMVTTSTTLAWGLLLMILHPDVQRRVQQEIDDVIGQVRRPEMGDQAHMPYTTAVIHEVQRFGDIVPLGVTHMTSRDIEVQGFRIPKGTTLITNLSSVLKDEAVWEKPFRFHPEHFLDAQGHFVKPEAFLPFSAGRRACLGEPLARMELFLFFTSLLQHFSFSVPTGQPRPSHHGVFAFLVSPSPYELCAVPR

Compound: CC(C)n1nccc1-c1ncccc1COc1cccc(O)c1C=O [voxelotor, 2-hydroxy-6-((2-(1-isopropyl-1H-pyrazol-5-yl)pyridin-3-yl)methoxy)benzaldehyde]
- steady state plasma AUC higher in HbSC vs HbSS genotype patients [1]: 23%
- steady state plasma Cmax higher in HbSC vs HbSS genotype patients [1]: 15%
- steady state whole blood AUC higher in HbSC (n=11) vs HbSS (n=220) genotype patients [1]: 50%
- steady state whole blood Cmax higher in HbSC vs HbSS genotype patients [1]: 45%
- inhibition of OCT2 (OCT2): not an inhibitor
- inhibition of CYP2D6 in vivo (CYP2D6): not
- half-life ([2]; in vivo, plasma, mild hepatic impairment, 1500 mg single oral dose): 71.4 h
- AUC(0-inf) ([2]; plasma, oral, 600 mg, plasma, severe hepatic impairment (Test), 600 mg, adjusted for dose to 1500 mg, read-out: AUCinf, Geometric LS Mean): 394 µg·h/mL
- AUC(0-t) ([2]; plasma, oral, 600 mg, plasma, severe hepatic impairment (Test), 600 mg, adjusted for dose to 1500 mg, read-out: AUCt, Geometric LS Mean): 388 µg·h/mL
- Cmax ([2]; plasma, oral, 600 mg, plasma, severe hepatic impairment (Test), 600 mg, adjusted for dose to 1500 mg, read-out: Cmax, Geometric LS Mean): 2900 ng/mL
- AUC(0-inf) ([2]; plasma, oral, 1500 mg, plasma, mild hepatic impairment (Test), 1500 mg, read-out: AUCinf, Geometric LS Mean): 223 µg·h/mL
- AUC(0-t) ([2]; plasma, oral, 1500 mg, plasma, mild hepatic impairment (Test), 1500 mg, read-out: AUCt, Geometric LS Mean): 221 µg·h/mL
- Cmax ([2]; plasma, oral, 1500 mg, plasma, mild hepatic impairment (Test), 1500 mg, read-out: Cmax, Geometric LS Mean): 2360 ng/mL
- AUC(0-inf) ([2]; plasma, oral, 1500 mg, plasma, moderate hepatic impairment (Test), 1500 mg, read-out: AUCinf, Geometric LS Mean): 240 µg·h/mL
- AUC(0-t) ([2]; plasma, oral, 1500 mg, plasma, moderate hepatic impairment (Test), 1500 mg, read-out: AUCt, Geometric LS Mean): 245 µg·h/mL
- Cmax ([2]; plasma, oral, 1500 mg, plasma, moderate hepatic impairment (Test), 1500 mg, read-out: Cmax, Geometric LS Mean): 3030 ng/mL
- AUC(0-inf) ([2]; plasma, oral, 1500 mg, plasma, normal hepatic function (Reference), 1500 mg, read-out: AUCinf, Geometric LS Mean): 204 µg·h/mL
- AUC(0-t) ([2]; plasma, oral, 1500 mg, plasma, normal hepatic function (Reference), 1500 mg, read-out: AUCt, Geometric LS Mean): 203 µg·h/mL
- Cmax ([2]; plasma, oral, 1500 mg, plasma, normal hepatic function (Reference), 1500 mg, read-out: Cmax, Geometric LS Mean): 2010 ng/mL
- AUC(0-t) ([2]; plasma, po, 600 mg, plasma, severe hepatic impairment, 600 mg single oral dose, adjusted for dose to 1500 mg, read-out: AUC0-96, GM (converted)): 177 µg·h/mL
- AUC(0-inf) ([2]; plasma, po, 600 mg, plasma, severe hepatic impairment, 600 mg single oral dose, adjusted for dose to 1500 mg, read-out: AUCinf, GM (converted)): 393 µg·h/mL
- AUC(0-t) ([2]; plasma, po, 600 mg, plasma, severe hepatic impairment, 600 mg single oral dose, adjusted for dose to 1500 mg, read-out: AUCt, GM (converted)): 386 µg·h/mL
- Cmax ([2]; plasma, po, 600 mg, plasma, severe hepatic impairment, 600 mg single oral dose, adjusted for dose to 1500 mg, read-out: Cmax, GM (converted)): 2960 ng/mL
- Vd/F [2, 3]: 592 L
- half-life [2, 3]: 109 h
- Tmax [2, 3]: 4 h
- AUC(0-t) ([2]; plasma, po, 1500 mg, plasma, mild hepatic impairment, 1500 mg single oral dose, read-out: AUC0-96, GM (converted)): 143 µg·h/mL
- AUC(0-inf) ([2]; plasma, po, 1500 mg, plasma, mild hepatic impairment, 1500 mg single oral dose, read-out: AUCinf, GM (converted)): 224 µg·h/mL
- AUC(0-t) ([2]; plasma, po, 1500 mg, plasma, mild hepatic impairment, 1500 mg single oral dose, read-out: AUCt, GM (converted)): 223 µg·h/mL
- Cmax ([2]; plasma, po, 1500 mg, plasma, mild hepatic impairment, 1500 mg single oral dose, read-out: Cmax, GM (converted)): 2390 ng/mL
- Vd/F [2, 4]: 674 L
- Tmax [2, 4]: 4 h
- AUC(0-t) ([2]; plasma, po, 1500 mg, plasma, moderate hepatic impairment, 1500 mg single oral dose, read-out: AUC0-96, GM (converted)): 146 µg·h/mL
- AUC(0-inf) ([2]; plasma, po, 1500 mg, plasma, moderate hepatic impairment, 1500 mg single oral dose, read-out: AUCinf, GM (converted)): 244 µg·h/mL
- AUC(0-t) ([2]; plasma, po, 1500 mg, plasma, moderate hepatic impairment, 1500 mg single oral dose, read-out: AUCt, GM (converted)): 252 µg·h/mL
- Cmax ([2]; plasma, po, 1500 mg, plasma, moderate hepatic impairment, 1500 mg single oral dose, read-out: Cmax, GM (converted)): 2910 ng/mL
- Vd/F [2, 5]: 789 L
- half-life [2, 5]: 90 h
- Tmax [2, 5]: 5 h
- AUC(0-t) ([2]; plasma, po, 1500 mg, plasma, normal hepatic function, 1500 mg single oral dose, read-out: AUC0-96, GM (converted)): 120 µg·h/mL
- AUC(0-inf) ([2]; plasma, po, 1500 mg, plasma, normal hepatic function, 1500 mg single oral dose, read-out: AUCinf, GM (converted)): 200 µg·h/mL
- AUC(0-t) ([2]; plasma, po, 1500 mg, plasma, normal hepatic function, 1500 mg single oral dose, read-out: AUCt, GM (converted)): 199 µg·h/mL
- Cmax ([2]; plasma, po, 1500 mg, plasma, normal hepatic function, 1500 mg single oral dose, read-out: Cmax, GM (converted)): 2010 ng/mL
- Vd/F [2, 6]: 865 L
- half-life [2, 6]: 80.8 h
- Tmax [2, 6]: 4 h
- AUC(0-inf) ([2]; whole blood, oral, 600 mg, whole blood, severe hepatic impairment (Test), 600 mg, adjusted for dose to 1500 mg, read-out: AUCinf, Geometric LS Mean): 13600 µg·h/mL
- AUC(0-t) ([2]; whole blood, oral, 600 mg, whole blood, severe hepatic impairment (Test), 600 mg, adjusted for dose to 1500 mg, read-out: AUCt, Geometric LS Mean): 13300 µg·h/mL
- Cmax ([2]; whole blood, oral, 600 mg, whole blood, severe hepatic impairment (Test), 600 mg, adjusted for dose to 1500 mg, read-out: Cmax, Geometric LS Mean): 85400 ng/mL
- AUC(0-inf) ([2]; whole blood, oral, 1500 mg, whole blood, mild hepatic impairment (Test), 1500 mg, read-out: AUCinf, Geometric LS Mean): 8160 µg·h/mL
- AUC(0-t) ([2]; whole blood, oral, 1500 mg, whole blood, mild hepatic impairment (Test), 1500 mg, read-out: AUCt, Geometric LS Mean): 8120 µg·h/mL
- Cmax ([2]; whole blood, oral, 1500 mg, whole blood, mild hepatic impairment (Test), 1500 mg, read-out: Cmax, Geometric LS Mean): 72900 ng/mL
- AUC(0-inf) ([2]; whole blood, oral, 1500 mg, whole blood, moderate hepatic impairment (Test), 1500 mg, read-out: AUCinf, Geometric LS Mean): 8230 µg·h/mL
- AUC(0-t) ([2]; whole blood, oral, 1500 mg, whole blood, moderate hepatic impairment (Test), 1500 mg, read-out: AUCt, Geometric LS Mean): 8190 µg·h/mL
- Cmax ([2]; whole blood, oral, 1500 mg, whole blood, moderate hepatic impairment (Test), 1500 mg, read-out: Cmax, Geometric LS Mean): 64900 ng/mL
- AUC(0-inf) ([2]; whole blood, oral, 1500 mg, whole blood, normal hepatic function (Reference), 1500 mg, read-out: AUCinf, Geometric LS Mean): 7150 µg·h/mL
- AUC(0-t) ([2]; whole blood, oral, 1500 mg, whole blood, normal hepatic function (Reference), 1500 mg, read-out: AUCt, Geometric LS Mean): 7130 µg·h/mL
- Cmax ([2]; whole blood, oral, 1500 mg, whole blood, normal hepatic function (Reference), 1500 mg, read-out: Cmax, Geometric LS Mean): 61400 ng/mL
- AUC(0-t) ([2]; whole blood, po, 600 mg, whole blood, severe hepatic impairment, 600 mg single oral dose, adjusted for dose to 1500 mg, read-out: AUC0-96, GM (converted)): 6050 µg·h/mL
- AUC(0-inf) ([2]; whole blood, po, 600 mg, whole blood, severe hepatic impairment, 600 mg single oral dose, adjusted for dose to 1500 mg, read-out: AUCinf, GM (converted)): 13600 µg·h/mL
